# Experimental data reported in PMC7029560, “Functional characterization of acyl-CoA binding protein in Neospora caninum” (Parasites & Vectors, 2020).
# Molecular target: T1, NcACBP (rNcACBP-GST) (Neospora caninum, UniProt F0VR91)
# T1 construct: gene NCLIV_066640
# T1 sequence (F0VR91 1-95): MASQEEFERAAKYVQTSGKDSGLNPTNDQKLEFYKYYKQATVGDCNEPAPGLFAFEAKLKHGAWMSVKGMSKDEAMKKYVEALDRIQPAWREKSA
# Assay: fluorescence binding assay (SpectraMax M5, […] nm)
# Conditions: 1 uM GST-fusion protein, 0-0.3 uM ligand, PBS, room temperature, 5 min; labelled compound
substance,measurement,value
NBD-C16:0-CoA,Kd,11.7 nM
